Test systems include MDA-MB-231 breast; HOP-92 NSCLC; SNB-19 CNS; RXF 393 renal; SK-MEL-2 melanoma; MOLT-4 leukemia; UACC-257 melanoma; OVCAR-5 ovarian.
What all share (experiment): NCI tumour cell line growth inhibition, 48 h

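These data come from cells grown in 96-well plates and exposed to compound for 48 hours at five concentrations. At the GI50, growth is halved. The concentration for full growth arrest is given as TGI.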

For `O=c1[nH]nc(Cc2ccc(Cl)cc2)n1/N=C/c1ccc([N+](=O)[O-])o1`, the TGI in the experiment on MDA-MB-231 breast was > 34.7 µM; in the experiment with HOP-92 NSCLC, > 46.8 µM; with SNB-19 CNS it was 33.3 µM; in the experiment on RXF 393 renal, 4.8 µM; with SK-MEL-2 melanoma, 12.4 µM; with MOLT-4 leukemia, > 26.6 µM. In addition, the TGI in the experiment on UACC-257 melanoma is 9.3 µM; in the experiment with OVCAR-5 ovarian, > 54.6 µM.
On to `COc1ccccc1C1C(C#N)=C(N)Oc2n[nH]c(C)c21` (stereo not drawn), for which the GI50 in the experiment with MDA-MB-231 breast is 15.1 µM; in the experiment with HOP-92 NSCLC it was 41.2 µM; in the experiment on SNB-19 CNS, > 100 µM; in the experiment with RXF 393 renal, > 100 µM; with SK-MEL-2 melanoma, > 100 µM; with MOLT-4 leukemia, > 100 µM. In addition, the GI50 in the experiment with UACC-257 melanoma and in the experiment with OVCAR-5 ovarian was > 100 µM in each case. For the same compound, the TGI with MDA-MB-231 breast, in the experiment on HOP-92 NSCLC, in the experiment with SNB-19 CNS, with RXF 393 renal, in the experiment on SK-MEL-2 melanoma and in the experiment on MOLT-4 leukemia was > 100 µM throughout. In addition, the TGI in the experiment on UACC-257 melanoma and in the experiment with OVCAR-5 ovarian was > 100 µM in each case.
With `N#Cc1c(N)nc2c3c1NC(=O)C(C(N)=O)C3c1ccccc1O2` (stereo not drawn), the TGI with MDA-MB-231 breast is > 100 µM; in the experiment on HOP-92 NSCLC, 71.9 µM; in the experiment with SNB-19 CNS it was > 100 µM; in the experiment on RXF 393 renal, > 100 µM; with SK-MEL-2 melanoma, > 100 µM; with MOLT-4 leukemia, > 100 µM. In addition, the TGI in the experiment with UACC-257 melanoma and in the experiment on OVCAR-5 ovarian was > 100 µM throughout.
Consider `OC(NN=C1CCCC1)(C(F)(F)Cl)C(F)(F)Cl`, for which the TGI in the experiment with MDA-MB-231 breast, in the experiment on HOP-92 NSCLC, with SNB-19 CNS, with RXF 393 renal, in the experiment with SK-MEL-2 melanoma and with MOLT-4 leukemia was > 10 µM throughout. For the same compound, the TGI with UACC-257 melanoma and with OVCAR-5 ovarian was > 10 µM in each case.
Regarding `Cc1ccccc1NC(=O)CC(=O)NNC(Sc1ccccc1)c1cc(N=Nc2ccc(Br)cc2)ccc1O` (stereo not drawn), the TGI is 6.05 µM in the experiment with MDA-MB-231 breast; > 10 µM in the experiment on HOP-92 NSCLC; > 10 µM with SNB-19 CNS; > 10 µM in the experiment with RXF 393 renal; > 10 µM with SK-MEL-2 melanoma; 3.1 µM in the experiment with MOLT-4 leukemia. Further, the TGI with UACC-257 melanoma and with OVCAR-5 ovarian was > 10 µM throughout.
For the compound `O=C1NC(N2CCOCC2)=N/C1=C\c1ccc(O)cc1`, the TGI with MDA-MB-231 breast, with HOP-92 NSCLC, in the experiment on SNB-19 CNS, with RXF 393 renal, in the experiment with SK-MEL-2 melanoma and in the experiment on MOLT-4 leukemia was > 100 µM each time. Further, the TGI with UACC-257 melanoma and with OVCAR-5 ovarian was > 100 µM in each case.
As for `C#CCOC(=O)c1ccc(OC(C)=O)cc1`, the TGI in the experiment with MDA-MB-231 breast, in the experiment with HOP-92 NSCLC, in the experiment with SNB-19 CNS, in the experiment on RXF 393 renal, in the experiment on SK-MEL-2 melanoma and with MOLT-4 leukemia was > 100 µM each time. In addition, the TGI in the experiment on UACC-257 melanoma and in the experiment with OVCAR-5 ovarian was > 100 µM in each case.
Consider `CCOC1=C(c2ccccc2)N2CCCCC2O1` (stereo not drawn), for which the TGI in the experiment on MDA-MB-231 breast is > 48.5 µM; with HOP-92 NSCLC it was 6 µM; with SNB-19 CNS it was > 100 µM; with RXF 393 renal it was 37.4 µM; in the experiment with SK-MEL-2 melanoma it was 7.99 µM; in the experiment on MOLT-4 leukemia it was > 73 µM. Besides, the TGI was > 33.6 µM in the experiment with UACC-257 melanoma and > 59.2 µM with OVCAR-5 ovarian.
For the compound `C[C@H](C1CC2(C)OC2(C)C(=O)O1)[C@H]1CC[C@H]2[C@@H]3[C@@H]4O[C@@H]4[C@@]4(O)CC=CC(=O)[C@]4(C)[C@H]3CC[C@]12C` (stereo partly drawn), the TGI with MDA-MB-231 breast is > 50 µM; in the experiment on HOP-92 NSCLC, > 50 µM; with SNB-19 CNS, > 50 µM; with RXF 393 renal, 23.9 µM; in the experiment with SK-MEL-2 melanoma, > 50 µM; in the experiment with MOLT-4 leukemia it was > 50 µM. In addition, the TGI in the experiment with UACC-257 melanoma and with OVCAR-5 ovarian was > 50 µM in each case.
In the case of `NC(=S)NC/C=C/Cl`, the TGI with MDA-MB-231 breast, with HOP-92 NSCLC, in the experiment with SNB-19 CNS, in the experiment on RXF 393 renal, with SK-MEL-2 melanoma and with MOLT-4 leukemia was > 100 µM each time. Besides, the TGI in the experiment on UACC-257 melanoma and in the experiment with OVCAR-5 ovarian was > 100 µM in each case.
In the case of `CC(C)=CCC[C@@H](C)C1=C(O)C(Nc2ccccc2I)=C(C)C(=O)C1=O`, the TGI is > 75 µM in the experiment with MDA-MB-231 breast; 50.2 µM in the experiment on HOP-92 NSCLC; > 75 µM with SNB-19 CNS; > 50 µM in the experiment with RXF 393 renal; 29.4 µM in the experiment with SK-MEL-2 melanoma; > 19.5 µM in the experiment on MOLT-4 leukemia. The figures for the TGI in the experiment on UACC-257 melanoma and in the experiment with OVCAR-5 ovarian were 74.3 µM and > 75 µM, respectively.
As for `CCOC(=O)c1cc(Br)c(-c2onc(C)c2Br)[nH]1`, the TGI in the experiment on MDA-MB-231 breast was 45.5 µM; with HOP-92 NSCLC, > 100 µM; with SNB-19 CNS it was 74.8 µM; in the experiment on RXF 393 renal, 38.7 µM; in the experiment on SK-MEL-2 melanoma, > 100 µM; with MOLT-4 leukemia it was > 100 µM. Further, the TGI with UACC-257 melanoma and in the experiment on OVCAR-5 ovarian was > 100 µM in each case.
For the compound `COc1cccc(C2c3cc4c(cc3OC(Nc3ccccc3)C2C)OCO4)c1O` (stereo not drawn), the TGI with MDA-MB-231 breast was found to be 37 µM; in the experiment on HOP-92 NSCLC it was 9.93 µM; in the experiment with SNB-19 CNS it was 74 µM; with RXF 393 renal, 31.4 µM; in the experiment on SK-MEL-2 melanoma, 51.9 µM; in the experiment with MOLT-4 leukemia it was 16 µM. Further, the TGI with UACC-257 melanoma was > 57.8 µM; with OVCAR-5 ovarian, > 93.8 µM.
Regarding `CCN(CC)C(=O)CCN1CC1`, the TGI with MDA-MB-231 breast, with HOP-92 NSCLC, with SNB-19 CNS, in the experiment with RXF 393 renal, with SK-MEL-2 melanoma and in the experiment with MOLT-4 leukemia was > 10 µM in each case. In addition, the TGI in the experiment on UACC-257 melanoma and with OVCAR-5 ovarian was > 10 µM each time.
As for `COc1cc(N(CCC#N)CCC#N)ccc1/C=N\NC(=O)c1ccc(C)cc1`, the TGI in the experiment with MDA-MB-231 breast was 36.7 µM; in the experiment on HOP-92 NSCLC it was > 100 µM; in the experiment with SNB-19 CNS it was > 100 µM; in the experiment with RXF 393 renal, > 100 µM; with SK-MEL-2 melanoma it was 32.6 µM; in the experiment with MOLT-4 leukemia, > 100 µM. The TGI in the experiment with UACC-257 melanoma and in the experiment with OVCAR-5 ovarian was > 100 µM in each case.

(Values after PubChem BioAssay (NCI).)
